Measurements as given in patent US20140171490A1, “Method and Device for Ophthalmic Administration of Active Pharmaceutical Ingredients” (PHARMALIGHT INC., priority 2005, published 2014).
Where two headings read alike, the source gives them in different places.

Columns and labels:
eye = details: cited from earlier work
[1] = design: species or system Lewis female rats; details: rat, in vivo
Procedure: Animal studies were carried out on Lewis female rats (6-8 weeks of age) from Harlan Laboratories Inc. (Rehovot, Israel). In some cases as noted below, the rats were anesthetized with ketamin/xylazine […].
ELISA tests were performed using commercially available ELISA kits from Assay Designs (Ann Arbor, Mich., USA) in accordance with the manufacturer's instructions in the usual way in conjunction with a BioTek EL-310 plate reader (Cambridge Scientific Products, Cambridge, Mass., USA).
Pharmaceutical compositions were administered by instillation in the eyes of rats or administered as a mist using the nebulization device described above at a rate of 10 μl minute^−1. Subsequent to administration and a waiting time, the rats were sacrificed.
Subsequent to sacrifice, serum, cerebrospinal fluid (CSF, 50-100 μl), retina, optic nerve, sclera, and aqueous humor (AH) of an animal were harvested. The retina, optic nerve, and sclera of each animal was individually homogenized in 120 ul assay buffer on ice and centrifuged. The serum, CSF, AH and the homogenized retina, optic nerve and sclera were assayed for the presence of leptin using ELISA.
Data below is expressed as pg ml^−1 for serum, CSF and AH and as pg mg^−1 for tissue (determined using the Lowry method). […]

beta-adrenoceptor = details: cited from earlier work
[2] = system: human corneal epithelial cells; details: reported in Burgalassi et al. Tox. Lett. 2001; cited from earlier work
[3] = reported in Saettone et al. Int. J. Pharma. 1996

## CC(=O)O[C@H]1C[C@@]2(C)[C@@H](C[C@@H](O)[C@H]3[C@@]4(C)CC[C@@H](O)[C@@H](C)[C@@H]4CC[C@@]32C)/C1=C(\CCC=C(C)C)C(=O)O [sodium fusidate]
eye; reported in Furrer et al. AAPS PharmSci 2002
  irritation to the eye: strongly irritating to the eye

## BL-9
eye; [3]
  irritation to the eye: strongly irritating to the eye

## leptin
[1]
  leptin concentration in optic nerve and sclera relative to retina: markedly higher than in the retina

## CC(C)(C)NCC(O)COc1cccc2c1CCCC2=O.Cl (single isomer, unassigned; (-)) [Levobunolol, (−)-5-[3-(tert-Butylamino)-2-hydroxypropoxy]-3,4-dihydro-1(2H)-naphthalenone hydrochloride]
beta-adrenoceptor
  potency in beta-blocking activity relative to its dextro isomer: greater than 60 times

## C[C@@H]1CC[C@@]2(OC1)O[C@H]1[C@@H](O)[C@H]3[C@@H]4CC[C@H]5C[C@@H](O[C@@H]6O[C@H](CO)[C@H](O[C@@H]7O[C@H](CO)[C@@H](O)[C@H](O[C@@H]8OC[C@@H](O)[C@H](O)[C@H]8O)[C@H]7O[C@@H]7O[C@H](CO)[C@H](O)[C@H](O[C@@H]8O[C@H](CO)[C@@H](O)[C@H](O)[C@H]8O)[C@H]7O)[C@H](O)[C@H]6O)[C@H](O)C[C@]5(C)[C@H]4CC[C@]3(C)[C@H]1[C@@H]2C [digitonin]
eye; [3]
  irritation to the eye: strongly irritating to the eye

## Brij-99
eye; reported in Morgan, J. Ocular Pharm. Ther. 1995
  irritation to the eye: strongly irritation to the eye

## CCCCCCCCCCCCCCCC[n+]1ccccc1 [cetylpyridinium chloride]
[2]
  toxicity to human corneal epithelial cells relative to Brij-78 and EDTA: less toxic to human corneal epithelial cells than Brij-78 but more toxic than EDTA

## benzalkonium chloride
[2]
  toxicity to human corneal epithelial cells relative to Brij-78 and EDTA: less toxic to human corneal epithelial cells than Brij-78 but more toxic than EDTA
eye; [3]
  irritation to the eye: strongly irritating to the eye
